Experimental findings from patent publication US20120184542A1, “PYRIDO PYRIMIDINES” (priority 2011, published 2012) are described below.

Structures are written as SMILES. Counter-ions that a name gives are not always drawn. Like-named read-outs stand apart in the source and are kept apart here. A value given as a limit tells only on which side of the number the result lay.

Test [1] relates to SW620 human colon cancer cells. The test is described as follows: SW620 Cell Viability Assay. In kind it is cell-based. The settings on record: CellTiter-Glo, 4 days incubation, read-out: Cellular EC50 (μM) SW620. The protocol: Some cells (S—) were allowed to attach for 24 hrs, serum starved for 48 hrs, and then followed with drug treatments Test Compound Solutions were Prepared in Regular Corresponding Media Supplemented with Serum 2. […] Viability Assay: This assay was performed as follows: • Transfer 50 μL of test compound solution per well from the test compound plate onto the cell plate prepared in Step #1. • Mix the plate with treated cells by pipetting up and down three times with 200 μL multi-channel pipette. • Incubate the cells in 5% CO2 incubator @ 37° C. for 4 days. • Run the CellTiter-Glo™ Luminescent Cell Viability Assay.
A general note: Cellular ATP, detected with luciferase, serves as a proxy for viable cell number.

Another test deals with T1, Human DYRK1B (Homo sapiens, UniProt Q9Y463).
T1 construct: purchased Invitrogen PR8350B (former PV4649)
T1 sequence (Q9Y463 whole entry): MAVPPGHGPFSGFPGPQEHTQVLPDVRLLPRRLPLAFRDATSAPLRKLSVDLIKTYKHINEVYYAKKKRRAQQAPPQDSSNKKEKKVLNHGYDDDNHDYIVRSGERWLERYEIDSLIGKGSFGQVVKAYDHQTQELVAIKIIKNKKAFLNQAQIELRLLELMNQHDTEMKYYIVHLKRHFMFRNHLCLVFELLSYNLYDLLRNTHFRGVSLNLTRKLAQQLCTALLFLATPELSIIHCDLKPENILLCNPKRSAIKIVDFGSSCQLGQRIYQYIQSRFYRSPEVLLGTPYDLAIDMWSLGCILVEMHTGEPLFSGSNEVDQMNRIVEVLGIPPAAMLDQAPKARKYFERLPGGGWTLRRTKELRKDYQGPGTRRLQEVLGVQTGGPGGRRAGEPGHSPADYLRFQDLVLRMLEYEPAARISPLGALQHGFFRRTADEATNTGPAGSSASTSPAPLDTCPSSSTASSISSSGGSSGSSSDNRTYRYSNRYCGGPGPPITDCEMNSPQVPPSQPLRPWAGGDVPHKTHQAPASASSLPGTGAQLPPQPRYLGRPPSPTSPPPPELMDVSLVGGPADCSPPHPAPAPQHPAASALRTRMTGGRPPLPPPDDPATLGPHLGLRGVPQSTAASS
The test is described as follows: DYRK1B Kinase TR-FRET (IMAP-Tb) Assay. It is filed as biochemical. The settings on record: TR-FRET (IMAP-Tb); ATP 70 μM; 37° C. 60 minutes; read-out: Enzyme IC50 (μM) DYRK1B. On the technique in general: Time-resolved FRET reads energy transfer from a long-lived donor to a nearby acceptor.

The target of another test is T2, Human DYRK1A (Homo sapiens, UniProt Q13627).
T2 construct: purchased Invitrogen PV3997
The test is described as follows: DYRK1A Kinase TR-FRET (IMAP-Tb) Assay. It is filed as biochemical. The settings on record: TR-FRET (IMAP-Tb); ATP 70 μM; 37° C. 60 minutes; read-out: Enzyme IC50 (μM) DYRK1A. Summed up: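 Recombinant human DYRK1A phosphorylated fluorescent substrate peptide (1.0 μM) with ATP in 10 mM HEPES pH 7.0, 50 mM NaCl, 5 mM MgCl2, 1 mM DTT, 1 mM NaVO4, 0.02% BSA for 60 min at 37 °C. Phosphopeptide detected by IMAP terbium TR-FRET; IC50 reported.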

With `O=C(NCc1cccc(Cl)c1)c1ccc(Cl)c(NC(=O)c2cc3cnc(NCCCN4CCOCC4)nc3[nH]c2=O)c1` [Example 90, 2-(3-Morpholin-4-yl-propylamino)-7-oxo-7,8-dihydro-pyrido[2,3-d]pyrimidine-6-carboxylic acid [2-chloro-5-(3-chloro-benzylcarbamoyl)-phenyl]amide], in test [1] (Homo sapiens, SW-620, 96 h), the EC50 (in general, the concentration that produces a half-maximal response) is 0.312 µM. Besides, the IC50 (as a rule, the concentration that gives 50% inhibition) on Human DYRK1B is 0.0523 µM; at Human DYRK1A, 0.0113 µM.
Take `O=C(NCc1cccc(Cl)c1)c1ccc(Cl)c(NC(=O)c2cc3cnc(N[C@H]4CC[C@H](O)CC4)nc3[nH]c2=O)c1` [Example 94, 2-(4-Hydroxy-cyclohexylamino)-7-oxo-7,8-dihydro-pyrido[2,3-d]pyrimidine-6-carboxylic acid [2-chloro-5-(3-chloro-benzylcarbamoyl)-phenyl]amide]: the EC50 in test [1] (Homo sapiens, SW-620, 96 h) worked out at 1.13 µM. The IC50 stood at 0.0622 µM at Human DYRK1B and 0.0245 µM at Human DYRK1A.
The like results for `O=C(NCc1cccc(Cl)c1)c1ccc(Cl)c(NC(=O)c2cc3cnc(N[C@H]4CC[C@@H](O)CC4)nc3[nH]c2=O)c1` [Example 95, 2-(4-Hydroxy-cyclohexylamino)-7-oxo-7,8-dihydro-pyrido[2,3-d]pyrimidine-6-carboxylic acid [2-chloro-5-(3-chloro-benzylcarbamoyl)-phenyl]amide] were, in that order, 0.406 µM, 0.012 µM and 0.0257 µM.
Turning to `NC1CCN(c2ncc3cc(C(=O)Nc4cc(C(=O)NCc5cccc(Cl)c5)ccc4Cl)c(=O)[nH]c3n2)CC1` [Example 97, 2-(4-Amino-piperidin-1-yl)-7-oxo-7,8-dihydro-pyrido[2,3-d]pyrimidine-6-carboxylic acid [2-chloro-5-(3-chloro-benzylcarbamoyl)-phenyl]-amide], the EC50 in test [1] (Homo sapiens, SW-620, 96 h) is 0.0662 µM. The IC50 at Human DYRK1B was determined as 0.0819 µM; on Human DYRK1A, 0.0448 µM.
Turning to `CN1CCN(CCNc2ncc3cc(C(=O)Nc4cc(C(=O)NCc5cccc(Cl)c5)ccc4Cl)c(=O)[nH]c3n2)CC1` [Example 99, 2-[2-(4-Methyl-piperazin-1-yl)-ethylamino]-7-oxo-7,8-dihydro-pyrido[2,3-d]pyrimidine-6-carboxylic acid [2-chloro-5-(3-chloro-benzylcarbamoyl)-phenyl]amide], the concentration giving a half-maximal response (EC50) in test [1] is 0.0276 µM. Moreover, the IC50 is 0.0347 µM on Human DYRK1B and 0.0202 µM at Human DYRK1A.
As for `CN1CCN(CCNc2ncc3cc(C(=O)Nc4cc(C(=O)NCc5cccc(Cl)c5)ccc4Cl)c(=O)[nH]c3n2)CC1` [Example 100, N-(2-chloro-5-(3-chlorobenzylcarbamoyl)phenyl)-2-(2-(4-methylpiperazin-1-yl)ethylamino)-7-oxo-7,8-dihydropyrido[2,3-d]pyrimidine-6-carboxamide hydrochloride], in test [1] (hydrochloride), the EC50 is 0.068 µM. In addition, the IC50 on Human DYRK1B is 0.142 µM; at Human DYRK1A, 0.0381 µM.
Turning to `CN1CCN(CCCNc2ncc3cc(C(=O)Nc4cc(C(=O)NCc5cccc(Cl)c5)ccc4Cl)c(=O)[nH]c3n2)CC1` [Example 101, 2-[3-(4-Methyl-piperazin-1-yl)-propylamino]-7-oxo-7,8-dihydro-pyrido[2,3-d]pyrimidine-6-carboxylic acid [2-chloro-5-(3-chloro-benzylcarbamoyl)-phenyl]amide], in test [1] (Homo sapiens, SW-620, 96 h), the EC50 turned out to be 0.0663 µM. Besides, the IC50 on Human DYRK1B amounted to 0.0221 µM; at Human DYRK1A, 0.0263 µM.
As to `CN1CCN(CCCNc2ncc3cc(C(=O)Nc4cc(C(=O)NCc5cccc(Cl)c5)ccc4Cl)c(=O)[nH]c3n2)CC1` [Example 102, 2-[3-(4-Methyl-piperazin-1-yl)-propylamino]-7-oxo-7,8-dihydro-pyrido[2,3-d]pyrimidine-6-carboxylic acid [2-chloro-5-(3-chloro-benzylcarbamoyl)-phenyl]-amide hydrochloride], in test [1] (hydrochloride), the EC50 is 0.0531 µM. Further, the IC50 came to 0.047 µM on Human DYRK1B and 0.0356 µM on Human DYRK1A.
In the case of `O=C(NCc1cccc(Cl)c1)c1ccc(Cl)c(NC(=O)c2cc3cnc(NCCO)nc3[nH]c2=O)c1` [Example 103, N-(2-chloro-5-(3-chlorobenzylcarbamoyl)phenyl)-2-(2-hydroxyethylamino)-7-oxo-7,8-dihydropyrido[2,3-d]pyrimidine-6-carboxamide], in test [1] (Homo sapiens, SW-620, 96 h), the EC50 is more than 10 µM. Also, the IC50 on Human DYRK1B is 0.0291 µM; on Human DYRK1A it was 0.00974 µM.
Consider `CN1CCC(CCNc2ncc3cc(C(=O)Nc4cc(C(=O)NCc5cccc(Cl)c5)ccc4Cl)c(=O)[nH]c3n2)CC1` [Example 104, N-(2-chloro-5-(3-chlorobenzylcarbamoyl)phenyl)-2-(2-(1-methylpiperidin-4-yl)ethylamino)-7-oxo-7,8-dihydropyrido[2,3-d]pyrimidine-6-carboxamide], for which the EC50 in test [1] (Homo sapiens, SW-620, 96 h) was found to be 0.0787 µM. The IC50 was determined as 0.0613 µM on Human DYRK1B and 0.0226 µM on Human DYRK1A.
The like results for `CSc1ncc2cc(C(=O)Nc3cc(C(=O)NC(CN)c4ccccc4)ccc3Cl)c(=O)[nH]c2n1` (stereo not drawn) [Example 105, N-(5-(2-amino-1-phenylethylcarbamoyl)-2-chlorophenyl)-2-(methylthio)-7-oxo-7,8-dihydropyrido[2,3-d]pyrimidine-6-carboxamide] were, in that order, 0.296 µM, 0.0099 µM and 0.0096 µM.
`CSc1ncc2cc(C(=O)Nc3cc(C(=O)NC(CCN)c4ccccc4)ccc3Cl)c(=O)[nH]c2n1` (stereo not drawn) [Example 107, 2-Methylsulfanyl-7-oxo-7,8-dihydro-pyrido[2,3-d]pyrimidine-6-carboxylic acid [5-(3-amino-1-phenyl-propylcarbamoyl)-2-chloro-phenyl]-amide; hydrochloride]: the EC50 in test [1] (Homo sapiens, SW-620, 96 h) was found to be 0.236 µM. The IC50 on Human DYRK1B was 0.0105 µM; at Human DYRK1A it was 0.00467 µM.
The like results for `CC(=O)N1CCN(c2ncc3cc(C(=O)Nc4cc(C(=O)NCc5cccc(Cl)c5)ccc4Cl)c(=O)[nH]c3n2)CC1` [Example 108, 2-(4-Acetylpiperazin-1-yl)-N-(2-chloro-5-(3-chlorobenzylcarbamoyl)phenyl)-7-oxo-7,8-dihydropyrido[2,3-d]pyrimidine-6-carboxamide] were, in that order, 0.528 µM, 0.056 µM and 0.114 µM.
The like results for `Cc1ncc2cc(C(=O)Nc3cc(C(=O)NC(CN)c4ccccc4)ccc3Cl)c(=O)[nH]c2n1` (stereo not drawn) [Example 114, N-(5-(2-Amino-1-phenylethylcarbamoyl)-2-chlorophenyl)-2-methyl-7-oxo-7,8-dihydropyrido[2,3-d]pyrimidine-6-carboxamide hydrochloride] were, in that order, 1.32 µM, 0.0146 µM and 0.0373 µM.
The like results for `N[C@H]1CC[C@@H](Nc2ncc3cc(C(=O)Nc4cc(C(=O)NCc5cccc(Cl)c5)ccc4Cl)c(=O)[nH]c3n2)CC1` [Example 118, 2-((1s,4 s)-4-Aminocyclohexylamino)-N-(2-chloro-5-(3-chlorobenzylcarbamoyl)phenyl)-7-oxo-7,8-dihydropyrido[2,3-d]pyrimidine-6-carboxamide hydrochloride] were, in that order, 0.438 µM, 0.0767 µM and 0.0569 µM.
Consider `O=C(NCc1cccc(Cl)c1)c1ccc(Cl)c(NC(=O)c2cc3cnc(N4CCNCC4)nc3[nH]c2=O)c1` [Example 119, N-(2-Chloro-5-(3-chlorobenzylcarbamoyl)phenyl)-7-oxo-2-(piperazin-1-yl)-7,8-dihydropyrido[2,3-d]pyrimidine-6-carboxamide hydrochloride], for which the EC50 in test [1] (Homo sapiens, SW-620, 96 h) worked out at 0.152 µM. Also, the results for the IC50 on Human DYRK1B and at Human DYRK1A were 0.135 µM and 0.044 µM, respectively.
The like results for `CN1CCN(CCCNc2ncc3cc(C(=O)Nc4cc(C(=O)NC(CN)c5ccccc5)ccc4Cl)c(=O)[nH]c3n2)CC1` (stereo not drawn) [Example 122, N-(5-(2-Amino-1-phenylethylcarbamoyl)-2-chlorophenyl)-2-(3-(4-methylpiperazin-1-yl)propylamino)-7-oxo-7,8-dihydropyrido[2,3-d]pyrimidine-6-carboxamide] were, in that order, 0.359 µM, 0.009 µM and 0.012 µM.
On to `CN1CCN(CCCNc2ncc3cc(C(=O)Nc4cc(C(=O)NC(CN)c5ccccc5)ccc4Cl)c(=O)[nH]c3n2)CC1` (stereo not drawn) [Example 123, N-(5-(2-Amino-1-phenylethylcarbamoyl)-2-chlorophenyl)-2-(3-(4-methylpiperazin-1-yl)propylamino)-7-oxo-7,8-dihydropyrido[2,3-d]pyrimidine-6-carboxamide hydrochloride], for which, in test [1] (hydrochloride), the EC50 stood at 0.319 µM. Also, the results for the half-inhibitory concentration (IC50) at Human DYRK1B and on Human DYRK1A were 0.0082 µM and 0.0067 µM, respectively.
As to `CC1(C)OCC(CNc2ncc3cc(C(=O)Nc4cc(C(=O)NCc5cccc(Cl)c5)ccc4Cl)c(=O)[nH]c3n2)O1` (stereo not drawn) [Example 124, N-(2-Chloro-5-(3-chlorobenzylcarbamoyl)phenyl)-2-((2,2-dimethyl-1,3-dioxolan-4-yl)methylamino)-7-oxo-7,8-dihydropyrido[2,3-d]pyrimidine-6-carboxamide], in test [1] (Homo sapiens, SW-620, 96 h), the EC50 is more than 10 µM. Moreover, the IC50 turned out to be 0.107 µM on Human DYRK1B and 0.113 µM on Human DYRK1A.
